Data published in ChEMBL document CHEMBL1135959, “The discovery of SB-435495. A potent, orally active inhibitor of lipoprotein-associated phospholipase A(2) for evaluation in man” (Bioorg Med Chem Lett, 2002).
In brackets after ≈: the same amount, converted by molar mass.

How the values were obtained:
[1] = Oral bioavailability in dog; assay type: ADME, organism-based, Canis lupus familiaris; details: in vivo, read-out: Bioavailabiility
[2] = Solubility in pure water at pH 4.7; assay type: physicochemical
[3] = Permeability of compound was evaluated in an artificial membrane permeability assay; assay type: ADME, cell membranes; details: PAMPA; read-out: Permeability (converted)
Cytochrome P450 1A2 = molecular target: T1, Cytochrome P450 1A2 (Homo sapiens, UniProt P05177); test: Inhibition of cytochrome P450 1A2; assay type: ADME
T1 sequence (P05177 whole entry): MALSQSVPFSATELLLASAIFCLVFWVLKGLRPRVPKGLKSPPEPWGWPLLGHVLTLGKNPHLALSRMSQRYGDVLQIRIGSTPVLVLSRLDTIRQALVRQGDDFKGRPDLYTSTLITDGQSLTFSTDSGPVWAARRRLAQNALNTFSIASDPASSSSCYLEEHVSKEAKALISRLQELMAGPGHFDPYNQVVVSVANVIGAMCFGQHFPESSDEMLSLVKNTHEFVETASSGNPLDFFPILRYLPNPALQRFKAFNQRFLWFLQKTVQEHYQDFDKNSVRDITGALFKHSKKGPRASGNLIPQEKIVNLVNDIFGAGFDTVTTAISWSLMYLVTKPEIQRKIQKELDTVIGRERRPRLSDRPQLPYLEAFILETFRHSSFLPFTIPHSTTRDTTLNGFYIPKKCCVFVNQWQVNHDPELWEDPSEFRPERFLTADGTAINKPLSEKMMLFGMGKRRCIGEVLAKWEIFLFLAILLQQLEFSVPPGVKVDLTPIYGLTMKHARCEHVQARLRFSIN

Cytochrome P450 2C19 = Cytochrome P450 2C19 (Homo sapiens, UniProt P33261); test: Inhibition of cytochrome P450 2C19; assay type: ADME
Cytochrome P450 2C19, sequence (P33261 whole entry): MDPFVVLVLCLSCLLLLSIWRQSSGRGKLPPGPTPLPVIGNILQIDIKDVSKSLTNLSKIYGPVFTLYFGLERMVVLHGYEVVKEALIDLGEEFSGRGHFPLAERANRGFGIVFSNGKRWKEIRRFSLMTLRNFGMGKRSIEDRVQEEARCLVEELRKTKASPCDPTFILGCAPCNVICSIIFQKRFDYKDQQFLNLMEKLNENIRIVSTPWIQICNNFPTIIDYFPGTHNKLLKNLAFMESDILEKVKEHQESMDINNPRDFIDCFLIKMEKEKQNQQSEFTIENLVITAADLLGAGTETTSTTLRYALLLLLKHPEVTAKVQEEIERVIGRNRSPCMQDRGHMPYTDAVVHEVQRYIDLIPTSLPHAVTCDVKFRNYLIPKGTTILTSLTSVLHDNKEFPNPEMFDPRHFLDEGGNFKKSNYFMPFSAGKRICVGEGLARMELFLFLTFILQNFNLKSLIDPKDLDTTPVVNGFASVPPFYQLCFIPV

Cytochrome P450 2C9 = Cytochrome P450 2C9 (Homo sapiens, UniProt P11712); test: Inhibition of cytochrome P450 2C9; assay type: ADME
Cytochrome P450 2C9, sequence (P11712 whole entry): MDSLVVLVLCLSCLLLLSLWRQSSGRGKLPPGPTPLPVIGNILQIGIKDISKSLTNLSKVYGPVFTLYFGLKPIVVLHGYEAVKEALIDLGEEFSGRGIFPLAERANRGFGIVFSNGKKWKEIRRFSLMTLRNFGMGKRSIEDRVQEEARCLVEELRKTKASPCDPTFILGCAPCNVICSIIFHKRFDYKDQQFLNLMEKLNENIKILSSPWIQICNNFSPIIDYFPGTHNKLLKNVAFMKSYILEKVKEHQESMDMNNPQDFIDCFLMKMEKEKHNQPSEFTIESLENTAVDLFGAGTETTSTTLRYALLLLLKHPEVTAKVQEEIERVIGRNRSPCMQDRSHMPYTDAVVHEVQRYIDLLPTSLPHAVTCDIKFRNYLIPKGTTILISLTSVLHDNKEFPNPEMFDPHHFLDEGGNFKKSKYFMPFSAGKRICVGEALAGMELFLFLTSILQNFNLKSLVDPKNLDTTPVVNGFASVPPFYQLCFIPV

Cytochrome P450 2D6 = Cytochrome P450 2D6 (Homo sapiens, UniProt P10635); test: Inhibition of cytochrome P450 2D6; assay type: ADME
Cytochrome P450 2D6, sequence (P10635 whole entry): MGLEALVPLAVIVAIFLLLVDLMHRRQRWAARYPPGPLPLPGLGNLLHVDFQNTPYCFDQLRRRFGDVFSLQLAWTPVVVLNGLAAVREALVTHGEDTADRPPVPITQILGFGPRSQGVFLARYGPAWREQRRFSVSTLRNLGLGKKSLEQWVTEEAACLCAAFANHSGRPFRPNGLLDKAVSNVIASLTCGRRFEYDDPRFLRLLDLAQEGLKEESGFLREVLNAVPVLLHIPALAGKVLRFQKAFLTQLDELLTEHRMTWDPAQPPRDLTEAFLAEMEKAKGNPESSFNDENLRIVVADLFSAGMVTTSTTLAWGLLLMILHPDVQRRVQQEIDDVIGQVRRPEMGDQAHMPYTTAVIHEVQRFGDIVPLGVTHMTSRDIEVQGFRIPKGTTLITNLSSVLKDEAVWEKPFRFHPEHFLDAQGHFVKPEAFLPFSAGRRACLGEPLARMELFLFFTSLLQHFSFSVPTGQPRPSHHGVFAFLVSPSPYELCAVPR

Cytochrome P450 3A4 = Cytochrome P450 3A4 (Homo sapiens, UniProt P08684); test: Inhibition of cytochrome P450 3A4; assay type: ADME
Cytochrome P450 3A4, sequence (P08684 whole entry): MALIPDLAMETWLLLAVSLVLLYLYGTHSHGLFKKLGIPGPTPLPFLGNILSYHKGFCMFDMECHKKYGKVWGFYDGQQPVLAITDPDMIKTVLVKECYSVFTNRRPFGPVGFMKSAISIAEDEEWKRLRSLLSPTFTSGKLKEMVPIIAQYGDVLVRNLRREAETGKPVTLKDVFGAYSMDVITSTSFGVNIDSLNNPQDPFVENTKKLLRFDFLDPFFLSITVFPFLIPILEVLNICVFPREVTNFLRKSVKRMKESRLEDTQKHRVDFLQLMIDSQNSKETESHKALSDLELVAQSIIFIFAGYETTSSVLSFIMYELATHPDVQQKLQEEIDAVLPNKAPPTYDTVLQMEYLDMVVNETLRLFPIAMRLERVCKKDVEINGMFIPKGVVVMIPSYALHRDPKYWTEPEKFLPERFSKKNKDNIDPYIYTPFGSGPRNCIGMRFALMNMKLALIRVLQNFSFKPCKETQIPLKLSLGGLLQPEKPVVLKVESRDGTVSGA

Homo sapiens [4] = species: Homo sapiens; test: Concentration required to inhibit the production of lyso-PtdCho by the compound during the copper catalyzed oxidation of human LDL; assay type: functional
[5] = Oral bioavailability in rat; assay type: ADME, organism-based; details: in vivo
Homo sapiens [6] = species: Homo sapiens; test: Concentration required to inhibit the subsequent monocyte chemotaxis by the compound during the copper catalyzed oxidation of human LDL; assay type: functional
[7] = molecular target: T2, Platelet-activating factor acetylhydrolase (Homo sapiens, UniProt Q13093); test: Inhibitory concentration against Lipoprotein-Associated Phospholipase A2 (Lp-PLA2) was estimated
T2 sequence (Q13093 whole entry): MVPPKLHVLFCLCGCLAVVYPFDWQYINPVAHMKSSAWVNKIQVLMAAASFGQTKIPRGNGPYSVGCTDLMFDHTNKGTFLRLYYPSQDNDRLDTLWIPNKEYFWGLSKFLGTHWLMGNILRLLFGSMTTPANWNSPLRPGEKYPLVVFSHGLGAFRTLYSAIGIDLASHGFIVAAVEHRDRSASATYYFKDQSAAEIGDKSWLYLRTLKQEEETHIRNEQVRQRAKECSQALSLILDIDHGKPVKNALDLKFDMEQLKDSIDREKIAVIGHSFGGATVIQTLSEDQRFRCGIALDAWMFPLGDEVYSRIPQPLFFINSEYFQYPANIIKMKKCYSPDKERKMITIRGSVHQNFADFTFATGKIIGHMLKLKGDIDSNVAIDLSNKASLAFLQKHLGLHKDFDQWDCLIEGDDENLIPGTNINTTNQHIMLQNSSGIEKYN

[8] = Acid dissociation constant was determined for the compound; assay type: ADME

SMILES	Papp [3] [×10⁻⁶ cm/s]	IC50 (Cytochrome P450 3A4) [µM]	IC50 [7] [µM]	other results
Cn1cc(Cc2cn(CC(=O)N(CCO)Cc3ccc(-c4ccc(Cl)cc4)cc3)c(SCc3ccc(F)cc3)nc2=O)cn1	0.556	19	–	–
Cn1cc(Cc2cn(CC(=O)N(CCN3CCCCC3)Cc3ccc(-c4ccc(C(F)(F)F)cc4)cc3)c(SCc3ccc(F)cc3)nc2=O)cn1	18.9	10	0.00017	–
COc1ncc(Cc2cn(CC(=O)N(CC(=O)O)Cc3ccc(-c4ccc(Cl)cc4)cc3)c(SCc3ccc(F)cc3)nc2=O)cn1	–	–	0.001	–
CN1CCN(CCCN(Cc2ccc(-c3ccc(Cl)cc3)cc2)C(=O)Cn2cc(Cc3cnn(C)c3)c(=O)nc2SCc2ccc(F)cc2)CC1	< 0.278	10	–	–
Cn1cc(Cc2cn(CC(=O)N(CCN3CCCC3)Cc3ccc(-c4ccc(Cl)cc4)cc3)c(SCc3ccc(F)cc3)nc2=O)cn1	1.11	6	–	–
CN(C)CCN(Cc1ccc(-c2ccc(Cl)cc2)cc1)C(=O)Cn1cc(Cc2cnn(C)c2)c(=O)nc1SCc1ccc(F)cc1	0.556	8	–	–
COc1ncc(Cc2cn(CC(=O)N(CC(=O)N(C)C)Cc3ccc(-c4ccc(Cl)cc4)cc3)c(SCc3ccc(F)cc3)nc2=O)cn1	–	< 0.5	0.0002	–
CCN(CC)CCN(Cc1ccc(-c2ccc(Cl)cc2)cc1)C(=O)Cn1cc(Cc2cnn(C)c2)c(=O)nc1SCc1ccc(F)cc1	8.06	5	–	pKa [8]: 8.3
Cn1cc(Cc2cn(CC(=O)N(CCN)Cc3ccc(-c4ccc(Cl)cc4)cc3)c(SCc3ccc(F)cc3)nc2=O)cn1	0.556	15	–	–
CN(C)CCCN(Cc1ccc(-c2ccc(Cl)cc2)cc1)C(=O)Cn1cc(Cc2cnn(C)c2)c(=O)nc1SCc1ccc(F)cc1	0.278	17	–	–
COc1ncc(Cc2cn(CC(=O)N(CCO)Cc3ccc(-c4ccc(Cl)cc4)cc3)c(SCc3ccc(F)cc3)nc2=O)cn1	–	–	0.0002	–
Cn1cc(Cc2cn(CC(=O)N(CC(=O)N3CCOCC3)Cc3ccc(-c4ccc(C(F)(F)F)cc4)cc3)c(SCc3ccc(F)cc3)nc2=O)cn1	–	–	0.0001	–

The next lines start with results.

Papp [3] [×10⁻⁶ cm/s]	IC50 (Cytochrome P450 3A4) [µM]	IC50 [7] [µM]	SMILES	other results
4.72	10	–	CCN(CC)CCN(Cc1ccc(-c2ccc(C(F)(F)F)cc2)cc1)C(=O)Cn1cc(Cc2cnn(C)c2)c(=O)nc1SCc1ccc(F)cc1	bioavailability [1]: 24%; solubility [2]: 5000 µg/mL (≈ 6.94 mM); IC50 (Cytochrome P450 1A2): 100 µM; IC50 (Cytochrome P450 2C19): > 40 µM; IC50 (Cytochrome P450 2C9): 100 µM; IC50 (Cytochrome P450 2D6): 37 µM; IC50 (Homo sapiens [4]): 0.023 µM; bioavailability [5]: 13%; IC50 (Homo sapiens [6]): 0.01 µM
–	–	0.0002	COc1ncc(Cc2cn(CC(=O)N(CCN(C)C)Cc3ccc(-c4ccc(Cl)cc4)cc3)c(SCc3ccc(F)cc3)nc2=O)cn1	–
< 0.278	2	–	CCN(CC)CCCN(Cc1ccc(-c2ccc(Cl)cc2)cc1)C(=O)Cn1cc(Cc2cnn(C)c2)c(=O)nc1SCc1ccc(F)cc1	pKa [8]: 9
–	> 0.5	–	CN(C)C(=O)CN(Cc1ccc(-c2ccc(Cl)cc2)cc1)C(=O)Cn1cc(Cc2cnn(C)c2)c(=O)nc1SCc1ccc(F)cc1	–
< 0.278	30	–	CN(C)CCN(Cc1ccc(-c2ccc(C(F)(F)F)cc2)cc1)C(=O)Cn1cc(Cc2cnn(C)c2)c(=O)nc1SCc1ccc(F)cc1	–
< 0.278	31	–	Cn1cc(Cc2cn(CC(=O)N(CC(=O)O)Cc3ccc(-c4ccc(C(F)(F)F)cc4)cc3)c(SCc3ccc(F)cc3)nc2=O)cn1	–
